Experiments:
HDAC8 = target: T1, HDAC8 (Homo sapiens, UniProt Q9BY41); assay: Kinetic parameters of inactivation from time-dependent IC50; type: biochemical
T1 construct: one additional N-terminal residue 'H' (His) (N)
T1 sequence (Q9BY41 1-377): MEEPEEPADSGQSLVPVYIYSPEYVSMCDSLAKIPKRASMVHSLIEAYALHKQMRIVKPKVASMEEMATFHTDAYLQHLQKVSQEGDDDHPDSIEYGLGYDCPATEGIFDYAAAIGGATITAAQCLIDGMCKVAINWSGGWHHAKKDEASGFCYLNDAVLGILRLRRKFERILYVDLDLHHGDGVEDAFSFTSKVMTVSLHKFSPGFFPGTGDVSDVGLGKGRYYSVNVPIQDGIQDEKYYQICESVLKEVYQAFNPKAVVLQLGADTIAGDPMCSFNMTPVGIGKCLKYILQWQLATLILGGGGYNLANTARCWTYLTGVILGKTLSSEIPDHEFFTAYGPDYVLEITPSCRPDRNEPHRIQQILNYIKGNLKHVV
Procedure: Time-dependent IC50 values were obtained using the previously described enzyme activity assay after varying preincubation times.

HDAC8 Cys153Ser mutant = target: T2, HDAC8 Cys153Ser mutant (Homo sapiens, UniProt Q9BY41, C153S); assay: HDAC8 mutant biochemical assay; conditions: preincubation 1 h
T2 construct: made in house
T2 sequence (Q9BY41 whole entry C153S): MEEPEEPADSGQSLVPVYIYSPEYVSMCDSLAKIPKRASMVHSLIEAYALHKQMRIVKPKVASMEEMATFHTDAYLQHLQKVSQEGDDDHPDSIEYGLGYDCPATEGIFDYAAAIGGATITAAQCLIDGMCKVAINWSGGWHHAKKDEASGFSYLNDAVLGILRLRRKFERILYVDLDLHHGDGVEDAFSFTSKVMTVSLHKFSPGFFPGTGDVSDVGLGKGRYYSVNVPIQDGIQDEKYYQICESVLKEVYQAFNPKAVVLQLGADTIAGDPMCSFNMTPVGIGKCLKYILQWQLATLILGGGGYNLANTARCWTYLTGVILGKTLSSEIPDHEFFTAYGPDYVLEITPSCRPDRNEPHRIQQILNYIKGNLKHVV

C#Cc1c[n+](C)ccc1NC(=O)CC(=O)N1Cc2ccccc2C1.[I-] [compound 3, 3-Ethynyl-4-[3-(isoindolin-2-yl)-3-oxopropanamido]-1-methylpyridin-1-ium Iodide]
kinact/KI (HDAC8; HDAC8): 1570 M⁻¹ s⁻¹
Ki (HDAC8; HDAC8, inactivation constant): 3.2 µM
kinact (HDAC8; HDAC8, time-dependent IC50, Krippendorff approach): 0.0051 s⁻¹
IC50 (HDAC8 Cys153Ser mutant): 58.8 µM

Source: publication PMC10788917 (Journal of Medicinal Chemistry, 2023)
